In patent US9309263B2, “Fused multi-cyclic sulfone compounds as inhibitors of beta-secretase and methods of use thereof” (AMGEN INC., priority 2013, dated 2016):
Like-named read-outs stand apart in the source and are kept apart here.

Columns and labels:
[1] = tested on: Aβ 40 in conditioned medium of cells stably expressing Amyloid Precursor Protein (APP); assay: In vitro BACE cell-based assay (Aβ 40 sandwich ELISA); details: Homo sapiens, HEK293
In short: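 APP-expressing cells, 24 h pre-culture in DMEM/10% FBS, treated 24 h with 10-point compound dilutions from 100 or 10 μM top, 0.1% DMSO final. Secreted Aβ40 quantified by sandwich ELISA (pAb40 capture, biotinylated 6E10 detection, europium TRF); IC50 from percent inhibition versus concentration.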

Cathepsin D (Cat D) = Cathepsin D (Cat D) (Homo sapiens, UniProt P07339); assay: In vitro enzymatic Cathepsin D (Cat D) FRET assay; assay type: biochemical
Chain of Cathepsin D (Cat D) (P07339 65-412, species assumed): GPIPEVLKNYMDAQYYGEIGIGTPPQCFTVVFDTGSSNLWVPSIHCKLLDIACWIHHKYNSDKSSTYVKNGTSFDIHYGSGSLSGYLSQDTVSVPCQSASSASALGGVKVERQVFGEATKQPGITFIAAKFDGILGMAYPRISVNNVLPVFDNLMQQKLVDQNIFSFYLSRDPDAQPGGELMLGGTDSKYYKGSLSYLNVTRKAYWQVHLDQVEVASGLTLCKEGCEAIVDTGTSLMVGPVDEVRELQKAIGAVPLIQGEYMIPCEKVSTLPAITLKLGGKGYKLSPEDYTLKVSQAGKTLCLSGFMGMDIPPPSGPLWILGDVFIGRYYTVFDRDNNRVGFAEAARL
In short: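 Recombinant CHO-expressed enzyme (9 nM) pre-incubated 1 h with serially diluted inhibitor in 0.05 M citrate pH 3.5, 10% DMSO final, 5 mM CHAPS. Reaction started with 20 nM FRET peptide substrate, run 1 h, stopped with Tris to neutral pH; fluorescence read at ex 500/em 580 nm.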

[2] = biological target: Beta Secretase enzyme (BACE) (Homo sapiens, UniProt P56817); assay: In vitro enzymatic BACE FRET assay; assay type: biochemical; details: read-out: BACE1 FRET assay IC50
Chain of Beta Secretase enzyme (BACE) (P56817 46-501): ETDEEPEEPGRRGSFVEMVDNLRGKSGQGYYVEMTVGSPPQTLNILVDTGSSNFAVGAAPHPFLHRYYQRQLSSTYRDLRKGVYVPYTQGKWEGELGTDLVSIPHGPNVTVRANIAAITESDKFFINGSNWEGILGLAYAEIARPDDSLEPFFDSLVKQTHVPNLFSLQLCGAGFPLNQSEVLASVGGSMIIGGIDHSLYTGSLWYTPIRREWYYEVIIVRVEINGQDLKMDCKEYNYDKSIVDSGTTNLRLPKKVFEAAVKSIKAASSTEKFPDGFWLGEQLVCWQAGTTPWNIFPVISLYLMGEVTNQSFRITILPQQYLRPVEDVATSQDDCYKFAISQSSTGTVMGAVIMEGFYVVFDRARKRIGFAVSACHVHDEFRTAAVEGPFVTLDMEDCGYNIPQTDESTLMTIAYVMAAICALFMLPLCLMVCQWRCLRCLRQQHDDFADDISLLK
In short: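 Enzyme (0.2 nM) pre-incubated 1 h with serially diluted inhibitors in 0.05 M acetate pH 4.2, 10% DMSO, 100 uM genapol. Reaction started with 50 nM fluorophore/quencher peptide FRET substrate, run 1 h, stopped with Tris to neutral pH. Fluorescence read at excitation 488 nm, […].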

[3] = average IC50, HEK cell assay, Aβ 40 readout
[4] = Cathepsin D FRET assay, read-out: CatD IC50
[5] = average IC50, in vitro enzymatic BACE FRET assay
[6] = text summary referring to data in Table 2

Cc1cc(Cl)cnc1C(=O)Nc1ccc2c(c1)[C@@]1(C)N=C(N)C(C)(C)S(=O)(=O)[C@H]1C[C@H](C)O2 [Example 183, N-((4aS,6S,11bR)-2-amino-3,3,6,11b-tetramethyl-4,4-dioxido-4a,5,6,11b-tetrahydro-3H-[1]benzoxepino[4,5-b][1,4]thiazin-10-yl)-5-chloro-3-methyl-2-pyridinecarboxamide]
IC50 ([1]; HEK cells, average IC50): 0.003 µM | IC50 (Cathepsin D (Cat D); read-out: CatD IC50): 44 µM | IC50 ([2]; average IC50): 0.009 µM

CC1(C)C(N)=N[C@]2(C)c3cc(NC(=O)c4ccc(C5CC5)cn4)ccc3OCC[C@H]2S1(=O)=O [Example 179, N-((4aR,11bR)-2-amino-3,3,11b-trimethyl-4,4-dioxido-4a,5,6,11b-tetrahydro-3H-[1]benzoxepino[4,5-b][1,4]thiazin-10-yl)-5-cyclopropyl-2-pyridinecarboxamide]
IC50 ([1]; HEK cells, average IC50): 0.035 µM | IC50 (Cathepsin D (Cat D); read-out: CatD IC50): 705 µM | IC50 ([2]; average IC50): 0.066 µM

Cc1cc(Cl)cnc1C(=O)Nc1ccc2c(c1)[C@@]1(C)N=C(N)C(C)(C)S(=O)(=O)[C@H]1CCO2 [Example 6b, N-((4aS,11bR)-2-amino-3,3,11b-trimethyl-4,4-dioxido-4a,5,6,11b-tetrahydro-3H-benzo[6,7]oxepino[4,5-b][1,4]thiazin-10-yl)-5-chloro-3-methylpicolinamide]
IC50 ([1]; HEK cell, average IC50): 0.004 µM | IC50 (Cathepsin D (Cat D); read-out: CatD IC50): > 100 µM | IC50 ([2]; average IC50): 0.003 µM

COc1cnc2c(Nc3ccc4c(c3)[C@@]3(CF)N=C(N)C(C)(C)S(=O)(=O)[C@H]3CCO4)nccc2n1 [Example 155, (4aS,11bS)-11b-(fluoromethyl)-N^~10^~-(2-methoxypyrido[3,4-b]pyrazin-5-yl)-3,3-dimethyl-4a,5,6,11b-tetrahydro-3H-[1]benzoxepino[4,5-b][1,4]thiazine-2,10-diamine 4,4-dioxide]
IC50 [1, 3]: 0.062 µM | IC50 (Cathepsin D (Cat D); [4]): > 400 µM | IC50 [2, 5]: 0.014 µM

Cc1cc(C(F)F)cnc1C(=O)Nc1ccc2c(c1)[C@@]1(C)N=C(N)C(C)(C)S(=O)(=O)[C@@H]1CCC2 [Example 40, N-((4aR,11bR)-2-amino-3,3,11b-trimethyl-4,4-dioxido-3,4a,5,6,7,11b-hexahydrobenzo[3,4]cyclohepta[1,2-b][1,4]thiazin-10-yl)-5-(difluoromethyl)-3-methyl-2-pyridinecarboxamide]
IC50 ([1]; HEK cell, average IC50): 0.015 µM | IC50 (Cathepsin D (Cat D); read-out: CatD IC50): > 400 µM | IC50 ([2]; average IC50): 0.035 µM

Cc1cc(Cl)cnc1C(=O)Nc1ccc2c(c1)[C@@]1(C)N=C(N)C(C)(C)S(=O)(=O)[C@@H]1CCC2 [Example 11, N-((4aR,11bR)-2-amino-3,3,11b-trimethyl-4,4-dioxido-3,4a,5,6,7,11b-hexahydrobenzo[3,4]cyclohepta[1,2-b][1,4]thiazin-10-yl)-5-chloro-3-methyl-2-pyridinecarboxamide]
IC50 ([1]; HEK cell, average IC50): 0.008 µM | IC50 (Cathepsin D (Cat D); read-out: CatD IC50): 217 µM | IC50 ([2]; average IC50): 0.005 µM

Cc1cc(C(F)(F)F)cnc1C(=O)Nc1ccc2c(c1)[C@@]1(C)N=C(N)C(C)(C)S(=O)(=O)[C@@H]1CCC2 [Example 45, N-((4aR,11bR)-2-amino-3,3,11b-trimethyl-4,4-dioxido-3,4a,5,6,7,11b-hexahydrobenzo[3,4]cyclohepta[1,2-b][1,4]thiazin-10-yl)-3-methyl-5-(trifluoromethyl)-2-pyridinecarboxamide]
IC50 ([1]; HEK cell, average IC50): 0.006 µM | IC50 (Cathepsin D (Cat D); read-out: CatD IC50): 1460 µM | IC50 (Cathepsin D (Cat D); [6]): > 1200 µM | IC50 ([2]; average IC50): 0.018 µM

C[C@H]1C[C@H]2[C@](CF)(N=C(N)C(C)(C)S2(=O)=O)c2cc(Nc3nccc4cc(C#N)cnc34)ccc2O1 [Example 109, 8-(((4aS,6S,11bS)-2-amino-11b-(fluoromethyl)-3,3,6-trimethyl-4,4-dioxido-4a,5,6,11b-tetrahydro-3H-[1]benzoxepino[4,5-b][1,4]thiazin-10-yl)amino)-1,7-naphthyridine-3-carbonitrile]
IC50 [1, 3]: 0.008 µM | IC50 (Cathepsin D (Cat D); [4]): > 400 µM | IC50 [2, 5]: 0.003 µM

COc1cnc2c(Nc3ccc4c(c3)[C@@]3(C)N=C(N)C(C)(C)S(=O)(=O)[C@@H]3CCC4)nccc2n1 [Example 48, (4aR,11bR)-N^~10^~-(2-methoxypyrido[3,4-b]pyrazin-5-yl)-3,3,11b-trimethyl-3,4a,5,6,7,11b-hexahydrobenzo[3,4]cyclohepta[1,2-b][1,4]thiazine-2,10-diamine 4,4-dioxide]
IC50 ([1]; HEK cell, average IC50): 0.041 µM | IC50 (Cathepsin D (Cat D); read-out: CatD IC50): 393 µM | IC50 ([2]; average IC50): 0.041 µM

COc1cnc(C(=O)Nc2ccc3c(c2)[C@@]2(C)N=C(N)C(C)(C)S(=O)(=O)[C@H]2CCC3)c(C)c1 [Example 32, N-((4aS,11bR)-2-amino-3,3,11b-trimethyl-4,4-dioxido-3,4a,5,6,7,11b-hexahydrobenzo[3,4]cyclohepta[1,2-b][1,4]thiazin-10-yl)-5-methoxy-3-methyl-2-pyridinecarboxamide]
IC50 ([1]; HEK cell, average IC50): 0.021 µM | IC50 (Cathepsin D (Cat D); read-out: CatD IC50): 1340 µM | IC50 (Cathepsin D (Cat D); [6]): > 1200 µM | IC50 ([2]; average IC50): 0.073 µM

Cc1cc(C#N)cnc1C(=O)Nc1ccc2c(c1)[C@@]1(C)N=C(N)C(C)(C)S(=O)(=O)[C@]1(F)CCO2 [Example 111, N-((4aR,11bR)-2-amino-4a-fluoro-3,3,11b-trimethyl-4,4-dioxido-4a,5,6,11b-tetrahydro-3H-[1]benzoxepino[4,5-b][1,4]thiazin-10-yl)-5-cyano-3-methyl-2-pyridinecarboxamide]
IC50 [1, 3]: 0.019 µM | IC50 (Cathepsin D (Cat D); [4]): 331 µM | IC50 [2, 5]: 0.005 µM

CC1(C)C(N)=N[C@]2(C)c3cc(NC(=O)c4ccc(Cl)cn4)ccc3CCC[C@H]2S1(=O)=O [Example 43, N-((4aR,11bR)-2-amino-3,3,11b-trimethyl-4,4-dioxido-3,4a,5,6,7,11b-hexahydrobenzo[3,4]cyclohepta[1,2-b][1,4]thiazin-10-yl)-5-chloro-2-pyridinecarboxamide]
IC50 ([1]; HEK cell, average IC50): 0.019 µM | IC50 (Cathepsin D (Cat D); read-out: CatD IC50): 458 µM | IC50 ([2]; average IC50): 0.012 µM

Cc1cc(C#N)cnc1C(=O)Nc1cnc2c(c1)[C@@]1(C)N=C(N)C(C)(C)S(=O)(=O)[C@H]1CCO2 [Example 21, N-((4aS,11bR)-2-amino-3,3,11b-trimethyl-4,4-dioxido-4a,5,6,11b-tetrahydro-3H-pyrido[3′,2′:6,7]oxepino[4,5-b][1,4]thiazin-10-yl)-5-cyano-3-methyl-2-pyridinecarboxamide]
IC50 ([1]; HEK cell, average IC50): 0.026 µM | IC50 (Cathepsin D (Cat D); read-out: CatD IC50): 1420 µM | IC50 ([2]; average IC50): 0.007 µM

Cc1cc(COc2cnc3c(Nc4ccc5c(c4)[C@@]4(C)N=C(N)C(C)(C)S(=O)(=O)[C@@H]4C[C@H](C)O5)nccc3n2)on1 [Example 137, (4aR,6S,11bR)-3,3,6,11b-tetramethyl-N^~10^~-(2-((3-methyl-5-isoxazolyl)methoxy)pyrido[3,4-b]pyrazin-5-yl)-4a,5,6,11b-tetrahydro-3H-[1]benzoxepino[4,5-b][1,4]thiazine-2,10-diamine 4,4-dioxide]
IC50 [1, 3]: 0.091 µM | IC50 (Cathepsin D (Cat D); [4]): > 133 µM | IC50 [2, 5]: 0.018 µM

C[C@H]1C[C@@H]2[C@](C)(N=C(N)C(C)(C)S2(=O)=O)c2cc(NC(=O)c3cnc(Cl)cn3)ccc2O1 [Example 75, N-((4aR,6S,11bR)-2-amino-3,3,6,11b-tetramethyl-4,4-dioxido-4a,5,6,11b-tetrahydro-3H-[1]benzoxepino[4,5-b][1,4]thiazin-10-yl)-5-chloro-2-pyrazinecarboxamide]
IC50 ([1]; HEK cell, average IC50): 0.061 µM | IC50 (Cathepsin D (Cat D); read-out: CatD IC50): 217 µM | IC50 ([2]; average IC50): 0.004 µM

Cc1nc(OCC(F)F)cnc1C(=O)Nc1ccc2c(c1)[C@@]1(C)N=C(N)C(C)(C)S(=O)(=O)[C@@H]1CCO2 [Example 91, N-((4aR,11bR)-2-amino-3,3,11b-trimethyl-4,4-dioxido-4a,5,6,11b-tetrahydro-3H-[1]benzoxepino[4,5-b][1,4]thiazin-10-yl)-5-(2,2-difluoroethoxy)-3-methyl-2-pyrazinecarboxamide]
IC50 [1, 3]: 0.027 µM | IC50 (Cathepsin D (Cat D); [4]): 1870 µM | IC50 (Cathepsin D (Cat D); [6]): > 1200 µM | IC50 [2, 5]: 0.019 µM

CC1(C)C(N)=N[C@]2(C)c3cc(Nc4nccc5cc(C#N)cnc45)ccc3CCC[C@H]2S1(=O)=O [Example 47, 8-(((4aR,11bR)-2-amino-3,3,11b-trimethyl-4,4-dioxido-3,4a,5,6,7,11b-hexahydrobenzo[3,4]cyclohepta[1,2-b][1,4]thiazin-10-yl)amino)-1,7-naphthyridine-3-carbonitrile]
IC50 ([1]; HEK cell, average IC50): 0.042 µM | IC50 (Cathepsin D (Cat D); read-out: CatD IC50): 338 µM | IC50 ([2]; average IC50): 0.008 µM

Cc1cc(C(F)F)cnc1C(=O)Nc1ccc2c(c1)[C@@]1(C)N=C(N)C(C)(C)S(=O)(=O)[C@@H]1CCO2 [Example 163, N-((4aR,11bR)-2-amino-3,3,11b-trimethyl-4,4-dioxido-4a,5,6,11b-tetrahydro-3H-[1]benzoxepino[4,5-b][1,4]thiazin-10-yl)-5-(difluoromethyl)-3-methyl-2-pyridinecarboxamide]
IC50 ([1]; HEK cells, average IC50): 0.003 µM | IC50 (Cathepsin D (Cat D); read-out: CatD IC50): > 400 µM | IC50 ([2]; average IC50): 0.005 µM

Cc1c(C(=O)Nc2ccc3c(c2)[C@@]2(C)N=C(N)C(C)(C)S(=O)(=O)[C@@H]2CCO3)nc2ccc(Cl)cn12 [Example 28, N-((4aR,11bR)-2-amino-3,3,11b-trimethyl-4,4-dioxido-4a,5,6,11b-tetrahydro-3H-[1]benzoxepino[4,5-b][1,4]thiazin-10-yl)-6-chloro-3-methylimidazo[1,2-a]pyridine-2-carboxamide]
IC50 ([1]; HEK cell, average IC50): 0.008 µM | IC50 (Cathepsin D (Cat D); read-out: CatD IC50): > 400 µM | IC50 ([2]; average IC50): 0.028 µM
